# Experimental data from patent publication US20210300981A1, “COMPOSITIONS AND METHODS FOR COMBATING MULTIDRUG-RESISTANT BACTERIA” (University of Virginia Patent Foundation, priority 2018, published 2021).
# Where a SMILES comes first, the peptide text is derived from it. Where no end group is shown, it is not given here. [ ]: non-standard residue; d: D form. ξ: configuration not given here. ξαMeGly(pent-4-enyl) = C=CCCCC(C)(N)C(=O)O
# What was measured:
# MDR A. baumannii = conditions: 2 h, 1.4 μM
# [1] = assay media, higher concentrations
# MDR Enterobacter cloacae = conditions: 2 h, 16.8 μM
# MDR S. Typhi [2] = conditions: 2 h, 2.8 μM
# B. anthracis = conditions: 2 h, 22.4 μM
# MDR P. aeruginosa = conditions: 2 h, 5.6 μM
# N. gonorrhoeae = conditions: 2 h, 22.4 μM
# VRE = conditions: 2 h, 11.2 μM
# CRE K. pneumoniae [3] = system: CRE K. pneumoniae
# MRSA = conditions: 2 h, 11.2 μM
# CRE K. pneumoniae [4] = assay type: cell-based, Klebsiella pneumoniae; conditions: for function of alanine scan variants: 2 hours (FIGS. 21, 22); for bactericidal activity versus negative control Peptide P5: 2.5×10^5 cfu/ml
# [5] = Truncation of Peptide P9, retention of activity; conditions: first 6 amino acids removed
# Source text: In some embodiments, alanine scans are available for […] (SEQ ID NO: 11). The alanine scan was used to modify the malleable position 8 and to make a conservative substitution at alanine residue 12 with an alkenyl derivative of alanine, namely, 2-(4-pentenyl)alanine, and then the alkene groups at positions 8 and 12 were coupled/stapled. Thus, a modified peptide in accordance with the presently disclosed subject matter includes a coupled peptide or a stapled peptide. […] Further, the first 6 amino acids present in […] (SEQ ID NO: 11) can be removed one by one while still retaining activity; removing all 6 gives KNLLKAVSKERSKRSP (SEQ ID NO: 12). Further truncations are also provided, including from the other end (such as the two end residues based on the alanine scan).
# MDR S. Typhi [6] = assay type: cell-based, Salmonella enterica serovar Typhi; conditions: 50 μM, RPMI/HEPES, 2.5×10^5 cfu/ml
# CD45+/CD3+ T lymphocytes = assay: Host-targeted bioregulatory effects: in vivo recruitment/infiltration of T lymphocytes; set-up: species or system C57BL/6 mice; conditions: as stated in the sequence description; FIG. 12
# [7] = system: B. anthracis Sterne strain 7702 spores; assay type: cell-based, Bacillus anthracis; conditions: 50 μM, RPMI/HEPES+2% FBS, 3 hours post-treatment, 1.0×10^7 cfu/ml spores
# K. pneumoniae ATCC 43816 = assay: Full-thickness wound infection model; assay type: in vivo, C57BL/6 mice
# trypsin protease = assay: Resistance to proteolytic degradation (trypsin pretreatment, read out by killing of CRE K. pneumoniae); conditions: trypsin 200:1 molar ratio, 2 hours, 50 mM Tris-HCl + 20 mM CaCl2
compound,measurement,setting,value
"CC[C@H](C)[C@H](NC(=O)[C@H](CO)NC(=O)[C@@H](NC(=O)[C@H](CS)NC(=O)[C@@H](NC(=O)[C@H](CS)NC(=O)[C@H](CCCNC(=N)N)NC(=O)[C@@H](NC(=O)[C@@H](NC(=O)[C@H](CCCNC(=N)N)NC(=O)[C@H](CO)NC(=O)[C@H](CC(C)C)NC(=O)[C@@H]1CCCN1C(=O)[C@@H](N)C(C)C)[C@@H](C)O)C(C)C)[C@@H](C)O)[C@@H](C)CC)C(=O)O [Peptide P1, VPLSRTVRCTCISI] (H-VPLSRTVRCTCISI-OH; N-terminus and C-terminus assumed)",killing of bacteria,MDR A. baumannii,99.0-99.9%
same,solubility,[1],experienced solubility issues at higher concentrations
same,killing of bacteria,MDR Enterobacter cloacae,99.0-99.9%
same,killing of bacteria,MDR S. Typhi [2],99.0-99.9%
same,killing of bacteria,B. anthracis,99.0-99.9%
same,killing of bacteria,MDR P. aeruginosa,99.0-99.9%
same,killing of bacteria,N. gonorrhoeae,99.0-99.9%
same,killing of bacteria,"MDR S. flexneri; MDR, 2 h, 2.8 μM",99.0-99.9%
same,killing of bacteria,VRE,99.0-99.9%
same,killing of bacteria,"CRE K. pneumoniae [3]; CRE, 2 h, 5.6 μM",99.0-99.9%
same,killing of bacteria,MRSA,99.0-99.9%
"ATVRCTCI (Artificially synthesized antibacterial peptide or conjugate) [SEQ ID NO: 25, alanine scan variant of Peptide L8, position 1]",function of alanine scan variants,"CRE K. pneumoniae [4]; 50 μM, RPMI/HEPES",still functional
CSVPTITCRVRLIS (Artificially synthesized antibacterial peptide or conjugate) [Peptide P1scram],survival of bacteria following exposure (killing),"MDR S. flexneri; 2.8 μM peptide, FIG. 6",did not kill bacteria
same,survival of bacteria following exposure (killing),"CRE K. pneumoniae [3]; 2.8 μM peptide, FIG. 6",did not kill bacteria
"KNLLKAVSKERSKRSP (Artificially synthesized antibacterial peptide or conjugate) [SEQ ID NO: 12, 16 amino acid core, truncated version of Peptide P9]",retention of the activities of Peptide P9 after truncation,[5],retains the activities of Peptide P9
L8-L8-L8: three copies of Peptide L8 concatemerized in head-to-tail configuration (RTVRCTCIRTVRCTCIRTVRCTCI; Artificially synthesized antibacterial peptide or conjugate) [Peptide L8-L8-L8],bactericidal activity versus negative control Peptide P5,"CRE K. pneumoniae [4]; 50 μM, RPMI/HEPES",killed CRE K. pneumoniae statistically significantly more effectively than Peptide P5
"LSRTVRCTCISI (Artificially synthesized antibacterial peptide or conjugate) [Peptide ΔVP, truncated Peptide P1 variant lacking the first two amino acids]",bactericidal activity versus negative control Peptide P5,MDR S. Typhi [6],statistically significant differences
same,immunomodulatory activity,CD45+/CD3+ T lymphocytes,reduced or absent immunomodulatory activity
same,bactericidal activity versus negative control Peptide P5,"CRE K. pneumoniae [4]; 50 μM, RPMI/HEPES",statistically significant differences
"PESKAIK(pA)LLK(pA)VSKERSKRSP (PESKAIK[ξαMeGly(pent-4-enyl)]LLK[ξαMeGly(pent-4-enyl)]VSKERSKRSP) [alkene-modified peptide, Peptide P9 variant with 2-(4-pentenyl)alanine at amino acids 8 and 12]",activity of modified Peptide P9 variants relative to Peptide P9,"CRE K. pneumoniae [4]; 50 μM, RPMI/HEPES, 2 hours (FIG. 20)",increased activity
PESKAIKNLLKAVSKERSKRSP [Peptide P9],killing of bacteria,N. gonorrhoeae,99.0-99.9%
same,activity in hypotonic buffer,"CRE K. pneumoniae [4]; 10 mM KPB/1% TSB, 2 hours at 37° C., FIG. 10",had activity
same,activity in RPMI (normosaline),"CRE K. pneumoniae [4]; RPMI/HEPES, 2 hours at 37° C., FIG. 10",lost activity
"PESKAIKNLLKAVSKERSKRSPGGGVPLSRTVRCTCISI (Artificially synthesized antibacterial peptide or conjugate) [Peptide P59, Peptide P9 conjugated to Peptide P1 via a tri-glycine linker]",spore germination (numbers of bacilli),[7],reduced spore germination
"RAVRCTCI (Artificially synthesized antibacterial peptide or conjugate) [SEQ ID NO: 26, alanine scan variant of Peptide L8, position 2]",function of alanine scan variants,"CRE K. pneumoniae [4]; 50 μM, RPMI/HEPES",still functional
RTVRCTCI [Peptide D8],bactericidal activity versus negative control Peptide P5,MDR S. Typhi [6],statistically significant differences
same,survival (Kaplan-Meier) of infected mice,"K. pneumoniae ATCC 43816; 10 μl of 1.2% peptide in saline topically, 4 hours post-infection then twice per day for 4 days, versus saline",statistically significant increase in survival
same,bacterial burden of wound swabs on LB agar,"K. pneumoniae ATCC 43816; same treatment, day 14 post-infection",No bacterial growth was observed
same,wound status over the course of infection,"K. pneumoniae ATCC 43816; same treatment, through day 21",bacterial infection was resolved and healing occurred
same,spore germination (numbers of bacilli),[7],reduced spore germination
same,resistance to proteolytic degradation,trypsin protease,resistant to proteolytic degradation
same,antimicrobial activity after incubation with trypsin,CRE K. pneumoniae [4]; 50 μM peptide pretreated with trypsin (200:1 molar ratio) for 2 hours,retaining antimicrobial activity
same,bactericidal activity versus negative control Peptide P5,"CRE K. pneumoniae [4]; 50 μM, RPMI/HEPES",statistically significant differences
RTVRCTCI [Peptide L8],bactericidal activity versus negative control Peptide P5,"CRE K. pneumoniae [4]; 50 μM, RPMI/HEPES",killed CRE K. pneumoniae statistically significantly more effectively than Peptide P5
VPLSRTVRTVRCTCISIGGGPESKAIKNLLKAVSKERSKRSP [Peptide P55],bactericidal activity versus negative control Peptide P5,MDR S. Typhi [6],statistically significant differences
same,bactericidal activity versus negative control Peptide P5,"CRE K. pneumoniae [4]; 50 μM, RPMI/HEPES",statistically significant differences
